One data set has as its target T1, Factor Xa (Homo sapiens, UniProt P00742).
T1 construct: purchased MERK
The experiment in a line: Anti-Factor Xa activity assay (chromogenic substrate CS-11(22)). The format is biochemical. The conditions noted are these: ratio of compound IC50 to apixaban IC50; Factor Xa 0.1 U/ml, absorbance at 405 nm, 37° C. As to the method:
I. Anti-Factor Xa Activity Assay
Substrate: CS-1122 (Hyphen)
Buffer: 50 mM TrisHCl, 150 mM NaCl, PH8.3
100 μL of buffer, 50 μL of different concentrations of compounds (diluted with buffer) and 50 μl of 0.1 U/ml Factor Xa enzyme (diluted with buffer) were added to a 96-well plate. After 15 min of exposure, 50 μL of chromogenic substrate 2.5 mg/ml CS-11 (22) was added. The substrate hydrolysis was monitored by measuring absorbance at 405 nm at 37° C. for up to 30 min (interval: 30 seconds) using a microplate spectrophotometer. IC50 was calculated by bliss.

For data set [1], the system named is Male SD rats. The experiment in a line: Rat tail bleeding model. The format is in vivo. To be noted: rat tail transected 0.5 to 4 hours after administration; prolongation = ratio of treated vs. mean vehicle value; relative to apixaban. As to the method: II Rat Tail Bleeding Model
Male SD rats were allocated randomly and administrated. After the administration, the rats were anesthetized by intraperitoneal injection of 10% chloral hydrate. At the time point of 0.5 to 4 hours (Tmax in PK) after the administration, the tails of anesthetized rats were transected 3 mm from the tip and vertically immersed in saline at 37° C. The time point when the continuous blood flow ceased for >30 s was measured. The prolongation of bleeding time was expressed as a ratio of treated vs. the mean vehicle value. Effects of compounds were determined as described below.

Data set [2] deals with Male SD rats. The experiment in a line: Arteriovenous shunt model in rats. It is filed as in vivo, rat. Details: concentration or dose not given beside the values. The conditions noted are these: rats given orally 2-4 hours before shunt opened; shunt 15 minutes; thrombus weight, treated vs. mean vehicle. An excerpt:
III. Arteriovenous Shunt Model in Rats
Two 10 cm-long polyethylene tubings (1.50 and 2.88 mm of inner and outer diameter, respectively) linked to a central part (8 cm-long, 2.11 and 3.77 mm of inner and outer diameter, respectively) containing a 6 cm silk thread and filled with heparin (3.125 U/ml) were placed between the right carotid artery and the left jugular vein in rats.
Male SD rats were anesthetized by intraperitoneal injection of 10% chloral hydrate after oral dose, inverted fixation, then the right catotid artery and left vena jugularis externa were isolated, the proximal and distal sutures of catotid artery were tied. The syringe needle were cannulated into the catotid artery and fasted, the other of the tube was cannulated into the right vena jugularis externa. Rats were given orally 2-4 hours before the shunt was opened. Blood flowed from the right carotid artery into the polyethylene tubing and then return to left vena jugularis externa. The shunt was then disconnected 15 minutes later and the silk thread covered with thrombus was immediately withdrawn and weighed. The wet weight of the thrombus was determined. Then the silk thread was dried at 60° C. for 4 h to get the dry weight of the thrombus. The anti-thrombotic effects of these agents were expressed as percentage inhibition of thrombus formation based on the treated vs. the corresponding mean vehicle.

T1 sequence (P00742 235-488 limits assumed): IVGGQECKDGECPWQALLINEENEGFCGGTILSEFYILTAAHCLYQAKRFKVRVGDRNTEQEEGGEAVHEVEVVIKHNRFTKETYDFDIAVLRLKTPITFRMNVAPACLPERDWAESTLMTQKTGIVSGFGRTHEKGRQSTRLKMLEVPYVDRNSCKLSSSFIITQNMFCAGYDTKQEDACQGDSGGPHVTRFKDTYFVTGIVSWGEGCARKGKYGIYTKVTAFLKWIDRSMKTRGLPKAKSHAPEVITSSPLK
T1 sequence (P00742 41-179 partner limits assumed): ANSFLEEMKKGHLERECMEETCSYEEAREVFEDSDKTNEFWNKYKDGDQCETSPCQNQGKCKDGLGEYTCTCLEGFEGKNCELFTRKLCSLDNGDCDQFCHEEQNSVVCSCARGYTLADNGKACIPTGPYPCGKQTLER

On to `CCOc1ccc(-n2nc(C(N)=O)c3c2C(=O)N(c2ccc(-n4ccccc4=O)c(C)c2)CC3)cc1F` [A 38, 1-(3-fluoro-4-ethoxyphenyl)-6-(3-methyl-4-(2-oxopyridin-1(2H)-yl)phenyl)-7-oxo-4,5,6,7-tetrahydro-1H-pyrazolo[3,4-c]pyridine-3-carboxamide], for which the “IC50(Compound)/IC50(apixaban)” value at Factor Xa is on record as <1. Also, in the data set with Male SD rats [1], the “The Prolongation of bleeding time (compound)/The Prolongation of bleeding time(apixaban)” value (shortened to “The Prolongation of bleeding time”) was <1. Moreover, the “Inhibition of thrombus formation (%)” value in the data set on Male SD rats [2] amounted to 70.5%.

Consider `CCOc1ccc(-n2nc(C(N)=O)c3c2C(=O)N(c2ccc(-n4cccc(C)c4=O)c(C)c2)CC3)cc1` [A 39, 1-(4-ethoxyphenyl)-6-(3-methyl-4-(3-methyl-2-oxopyridin-1(2H)-yl)phenyl)-7-oxo-4,5,6,7-tetrahydro-1H-pyrazolo[3,4-c]pyridine-3-carboxamide], for which, on Factor Xa, the “IC50(Compound)/IC50(apixaban)” value is <1. In addition, the “The Prolongation of bleeding time” value with Male SD rats [1] is given as <1. Moreover, the “Inhibition of thrombus formation (%)” value in the data set with Male SD rats [2] is listed as 64.5%.

`CCOc1ccc(-n2nc(C(N)=O)c3c2C(=O)N(c2ccc(-n4cccc(C)c4=O)c(C)c2)CC3)cc1F` [A 40, 1-(3-fluoro-4-ethoxyphenyl)-6-(3-methyl-4-(3-methyl-2-oxopyridin-1(2H)-yl)phenyl)-7-oxo-4,5,6,7-tetrahydro-1H-pyrazolo[3,4-c]pyridine-3-carboxamide]: the “IC50(Compound)/IC50(apixaban)” value on Factor Xa is recorded as <1. In addition, the “The Prolongation of bleeding time” value in the data set on Male SD rats [1] is reported as <1. Moreover, the “Inhibition of thrombus formation (%)” value in the data set on Male SD rats [2] is given as 63.4%.
